Experimental data as given in ChEMBL document CHEMBL3885861, “Open TG-GATES”.

Species: Rattus norvegicus
Assay: Open TG-GATES - Regimen: Single
Assay type: toxicity, organism-based, Sprague-Dawley
Set-up: regimen Single, gender Male, age 6 weeks
Conditions: in vivo, po, route gavage; for KIDNEY_L / KIDNEY_R / KIDNEY_TOTAL: tissue Kidney; for LIVER: tissue Liver; for ALP / ALT / AST / BUN / CRE / Ca / Cl / DBIL / GLC / IP / K / LDH / Na / PL / RALB / TBIL / TC / TG / TP / gamma-GTP: tissue Plasma
[1] = 6 mg/kg, 3 h, dose level Middle
[2] = 6 mg/kg, 3 h, tissue Blood, dose level Middle
[3] = 6 mg/kg, 6 h, dose level Middle
[4] = 6 mg/kg, 6 h, tissue Blood, dose level Middle
[5] = 6 mg/kg, 9 h, dose level Middle
[6] = 6 mg/kg, 9 h, tissue Blood, dose level Middle
[7] = 6 mg/kg, 24 h, dose level Middle
[8] = 6 mg/kg, 24 h, tissue Blood, dose level Middle
[9] = 20 mg/kg, 3 h, tissue Blood, dose level High
[10] = 20 mg/kg, 6 h, tissue Blood, dose level High
[11] = 20 mg/kg, 9 h, tissue Blood, dose level High
[12] = 20 mg/kg, 24 h, dose level High
[13] = 20 mg/kg, 24 h, tissue Blood, dose level High

## OCCN1CCN(CCCN2c3ccccc3Sc3ccc(C(F)(F)F)cc32)CC1 [FLUPHENAZINE]
[1]
  TERMINAL_BW: 196.9 g
  KIDNEY_L: 0.9 g
  KIDNEY_R: 0.9 g
  KIDNEY_TOTAL: 1.8 g
  LIVER: 9.1 g
  ALP: 915 IU/L
  ALT: 35.8 IU/L
  AST: 63.2 IU/L
  BUN: 10 mg/dL
  CRE: 0.5 mg/dL
  Ca: 10.3 mg/dL
  Cl: 105.4 meq/L
  DBIL: 0.008 mg/dL
  GLC: 191 mg/dL
  IP: 10.4 mg/dL
  K: 4.4 meq/L
  LDH: 91.6 IU/L
  Na: 138.2 meq/L
  PL: 136.6 mg/dL
  RALB: 3.6 g/dL
  TBIL: 0.4 mg/dL
  TC: 77.2 mg/dL
  TG: 48 mg/dL
  TP: 5.3 g/dL
  gamma-GTP: 1.8 IU/L
[2]
  APTT: 16 s
  Bas: 0%
  Eos: 0.6%
  Fbg: 213.6 mg/dL
  Hb: 12.8 g/dL
  Lym: 75%
  MCH: 21.2 pg
  MCHC: 32.9%
  MCV: 64.2 fL
  Mono: 9.2%
  Neu: 15.2%
  PT: 12.5 s
  Plat: 98.9 x10_4/uL
  RBC: 607.8 x10_4/ul
  Ret: 7.7%
  WBC: 78.7 x10_2/uL
[3]
  TERMINAL_BW: 195.2 g
  KIDNEY_L: 0.9 g
  KIDNEY_R: 0.9 g
  KIDNEY_TOTAL: 1.8 g
  LIVER: 8.8 g
  ALP: 722.4 IU/L
  ALT: 30 IU/L
  AST: 56.2 IU/L
  BUN: 10.4 mg/dL
  CRE: 0.5 mg/dL
  Ca: 10.2 mg/dL
  Cl: 105.6 meq/L
  DBIL: 0.014 mg/dL
  GLC: 196 mg/dL
  IP: 10.2 mg/dL
  K: 4.7 meq/L
  LDH: 90.8 IU/L
  Na: 136 meq/L
  PL: 144.4 mg/dL
  RALB: 3.6 g/dL
  TBIL: 0.4 mg/dL
  TC: 84.6 mg/dL
  TG: 26.8 mg/dL
  TP: 5.3 g/dL
  gamma-GTP: 1.4 IU/L
[4]
  APTT: 16.4 s
  Bas: 0%
  Eos: 0.8%
  Fbg: 211.6 mg/dL
  Hb: 13.2 g/dL
  Lym: 74.4%
  MCH: 21.3 pg
  MCHC: 32.8%
  MCV: 64.9 fL
  Mono: 9.4%
  Neu: 15.8%
  PT: 12.3 s
  Plat: 113.8 x10_4/uL
  RBC: 620.4 x10_4/ul
  Ret: 8.6%
  WBC: 89.6 x10_2/uL
[5]
  TERMINAL_BW: 194 g
  KIDNEY_L: 0.9 g
  KIDNEY_R: 1 g
  KIDNEY_TOTAL: 1.9 g
  LIVER: 7.9 g
  ALP: 730.2 IU/L
  ALT: 30.4 IU/L
  AST: 54.2 IU/L
  BUN: 9.2 mg/dL
  CRE: 0.5 mg/dL
  Ca: 10.1 mg/dL
  Cl: 106.2 meq/L
  DBIL: 0.038 mg/dL
  GLC: 189 mg/dL
  IP: 10.5 mg/dL
  K: 4.2 meq/L
  LDH: 83.8 IU/L
  Na: 138.4 meq/L
  PL: 133.2 mg/dL
  RALB: 3.7 g/dL
  TBIL: 0.4 mg/dL
  TC: 80.6 mg/dL
  TG: 21.4 mg/dL
  TP: 5.5 g/dL
  gamma-GTP: 1.8 IU/L
[6]
  APTT: 16.5 s
  Bas: 0%
  Eos: 0.6%
  Fbg: 227 mg/dL
  Hb: 13.2 g/dL
  Lym: 79.2%
  MCH: 22.1 pg
  MCHC: 33.3%
  MCV: 66.3 fL
  Mono: 5.8%
  Neu: 14.8%
  PT: 12.5 s
  Plat: 112.2 x10_4/uL
  RBC: 598.2 x10_4/ul
  Ret: 7.8%
  WBC: 74.5 x10_2/uL
[7]
  TERMINAL_BW: 201.5 g
  KIDNEY_L: 0.9 g
  KIDNEY_R: 0.9 g
  KIDNEY_TOTAL: 1.8 g
  LIVER: 9.6 g
  ALP: 748.4 IU/L
  ALT: 28.2 IU/L
  AST: 56.6 IU/L
  BUN: 23.8 mg/dL
  CRE: 0.5 mg/dL
  Ca: 11 mg/dL
  Cl: 103.6 meq/L
  DBIL: 0.03 mg/dL
  GLC: 176.8 mg/dL
  IP: 8 mg/dL
  K: 5 meq/L
  LDH: 90 IU/L
  Na: 137.2 meq/L
  PL: 154.6 mg/dL
  RALB: 4.2 g/dL
  TBIL: 0.3 mg/dL
  TC: 84.4 mg/dL
  TG: 94.4 mg/dL
  TP: 6.1 g/dL
  gamma-GTP: 1.2 IU/L
[8]
  APTT: 16.7 s
  Bas: 0%
  Eos: 1.2%
  Fbg: 208 mg/dL
  Hb: 13.7 g/dL
  Lym: 81.4%
  MCH: 21.6 pg
  MCHC: 33.2%
  MCV: 64.9 fL
  Mono: 9%
  Neu: 8.6%
  PT: 11.9 s
  Plat: 112.8 x10_4/uL
  RBC: 636 x10_4/ul
  Ret: 7.3%
  WBC: 85.5 x10_2/uL
20 mg/kg, 3 h, dose level High
  TERMINAL_BW: 197.6 g
  KIDNEY_L: 0.9 g
  KIDNEY_R: 0.9 g
  KIDNEY_TOTAL: 1.8 g
  LIVER: 9.2 g
  ALP: 781.6 IU/L
  ALT: 29.4 IU/L
  AST: 58 IU/L
  BUN: 10 mg/dL
  CRE: 0.5 mg/dL
  Ca: 10.7 mg/dL
  Cl: 107.4 meq/L
  DBIL: 0.006 mg/dL
  GLC: 225.6 mg/dL
  IP: 10.6 mg/dL
  K: 4.3 meq/L
  LDH: 145.2 IU/L
  Na: 139 meq/L
  PL: 132 mg/dL
  RALB: 3.7 g/dL
  TBIL: 0.3 mg/dL
  TC: 74.6 mg/dL
  TG: 33.8 mg/dL
  TP: 5.3 g/dL
  gamma-GTP: 1.6 IU/L
[9]
  APTT: 16.7 s
  Bas: 0%
  Eos: 0.8%
  Fbg: 205.4 mg/dL
  Hb: 12.9 g/dL
  Lym: 81.6%
  MCH: 21.4 pg
  MCHC: 33%
  MCV: 64.9 fL
  Mono: 4.4%
  Neu: 13.6%
  PT: 12.7 s
  Plat: 111.6 x10_4/uL
  RBC: 600.6 x10_4/ul
  Ret: 9.2%
  WBC: 64.5 x10_2/uL
20 mg/kg, 6 h, dose level High
  TERMINAL_BW: 194.7 g
  KIDNEY_L: 0.9 g
  KIDNEY_R: 0.9 g
  KIDNEY_TOTAL: 1.8 g
  LIVER: 8.8 g
  ALP: 839.8 IU/L
  ALT: 32 IU/L
  AST: 60.2 IU/L
  BUN: 10.6 mg/dL
  CRE: 0.5 mg/dL
  Ca: 10 mg/dL
  Cl: 107.4 meq/L
  DBIL: 0.018 mg/dL
  GLC: 215.2 mg/dL
  IP: 9.9 mg/dL
  K: 4.3 meq/L
  LDH: 171.6 IU/L
  Na: 138 meq/L
  PL: 125.6 mg/dL
  RALB: 3.5 g/dL
  TBIL: 0.4 mg/dL
  TC: 76 mg/dL
  TG: 16.6 mg/dL
  TP: 5.3 g/dL
  gamma-GTP: 1.2 IU/L
[10]
  APTT: 16.3 s
  Bas: 0%
  Eos: 0.4%
  Fbg: 205.8 mg/dL
  Hb: 12.8 g/dL
  Lym: 79%
  MCH: 21.9 pg
  MCHC: 32.9%
  MCV: 66.4 fL
  Mono: 6.4%
  Neu: 14.6%
  PT: 12.3 s
  Plat: 100.1 x10_4/uL
  RBC: 587.4 x10_4/ul
  Ret: 7.7%
  WBC: 59.6 x10_2/uL
20 mg/kg, 9 h, dose level High
  TERMINAL_BW: 190.3 g
  KIDNEY_L: 0.9 g
  KIDNEY_R: 0.9 g
  KIDNEY_TOTAL: 1.8 g
  LIVER: 7.8 g
  ALP: 741.8 IU/L
  ALT: 28.8 IU/L
  AST: 56 IU/L
  BUN: 9.6 mg/dL
  CRE: 0.5 mg/dL
  Ca: 10 mg/dL
  Cl: 107 meq/L
  DBIL: 0.03 mg/dL
  GLC: 197 mg/dL
  IP: 9.6 mg/dL
  K: 4.2 meq/L
  LDH: 157.8 IU/L
  Na: 139.2 meq/L
  PL: 135 mg/dL
  RALB: 3.7 g/dL
  TBIL: 0.3 mg/dL
  TC: 89 mg/dL
  TG: 11.2 mg/dL
  TP: 5.3 g/dL
  gamma-GTP: 1.2 IU/L
[11]
  APTT: 16.3 s
  Bas: 0%
  Eos: 0.2%
  Fbg: 214.8 mg/dL
  Hb: 12.7 g/dL
  Lym: 76.8%
  MCH: 21.3 pg
  MCHC: 33.1%
  MCV: 64.4 fL
  Mono: 6%
  Neu: 16.4%
  PT: 12.3 s
  Plat: 113.7 x10_4/uL
  RBC: 594 x10_4/ul
  Ret: 8.4%
  WBC: 72.7 x10_2/uL
[12]
  TERMINAL_BW: 176 g
  KIDNEY_L: 0.9 g
  KIDNEY_R: 0.9 g
  KIDNEY_TOTAL: 1.8 g
  LIVER: 7.5 g
  ALP: 847.4 IU/L
  ALT: 27.8 IU/L
  AST: 69.6 IU/L
  BUN: 23.8 mg/dL
  CRE: 0.5 mg/dL
  Ca: 10.5 mg/dL
  Cl: 105.4 meq/L
  DBIL: 0.012 mg/dL
  GLC: 176 mg/dL
  IP: 9 mg/dL
  K: 4.9 meq/L
  LDH: 171.6 IU/L
  Na: 138.6 meq/L
  PL: 138.8 mg/dL
  RALB: 4.3 g/dL
  TBIL: 0.3 mg/dL
  TC: 87.6 mg/dL
  TG: 44.6 mg/dL
  TP: 6.1 g/dL
  gamma-GTP: 1.2 IU/L
[13]
  APTT: 16.6 s
  Bas: 0%
  Eos: 0.2%
  Fbg: 206.6 mg/dL
  Hb: 14.7 g/dL
  Ht: 44.3%
  Lym: 81.2%
  MCH: 21.5 pg
  MCHC: 33.2%
  MCV: 64.8 fL
  Mono: 7.6%
  Neu: 10.6%
  PT: 12.2 s
  Plat: 125.2 x10_4/uL
  RBC: 684 x10_4/ul
  Ret: 6.6%
  WBC: 78.6 x10_2/uL
